From ChEMBL document CHEMBL5365500, “Development and Antibacterial Properties of 4-[4-(Anilinomethyl)-3-phenylpyrazol-1-yl]benzoic Acid Derivatives as Fatty Acid Biosynthesis Inhibitors” (J Med Chem, 2023)
In brackets after ≈: the same amount, converted by molar mass. Activity calls are given as the source filed them. The calls are words filed in the database; no cut-off is given here.

Legend:
Staphylococcus aureus [1] = assay: In vivo antimicrobial activity against Staphylococcus aureus USA300 infected in Caenorhabditis elegans AU37 nematodes assessed as viability of nematodes incubated for 5 days by susceptibility test; format: functional; conditions: USA300, 120 h, time 5 day
Enterococcus faecium = assay: Antimicrobial activity against antibiotic-resistant Enterococcus faecium ATCC 700221 assessed as inhibition of visible growth measured after 20 to 24 hrs incubation by CLSI method; format: functional; conditions: time 20-24 hrs
Staphylococcus aureus [2] = assay: Antimicrobial activity against antibiotic-resistant Staphylococcus aureus ATCC 700699 assessed as inhibition of visible growth measured after 20 to 24 hrs incubation by CLSI method; format: functional; conditions: time 20-24 hrs
Cell membrane = assay: Induction of membrane permeability in Staphylococcus aureus ATCC 700699 assessed as increase in fluorescence intensity at 4 times of MIC incubated for 15 mins measured for 1 hr by propidium iodide/real time fluorescence based flow cytometry Rvb = 3.5); conditions: time 75.0 min
Staphylococcus aureus [3] = assay: Antimicrobial activity against Staphylococcus aureus ATCC 25923 assessed as eradication of biofilm measured after 24 hrs incubation by Calgary method; format: functional
Staphylococcus aureus [4] = assay: In vivo antimicrobial activity against Staphylococcus aureus Newman infected in Caenorhabditis elegans AU37 nematodes assessed as viability of nematodes incubated for 5 days by susceptibility test; format: functional; conditions: 120 h, time 5 day
Staphylococcus aureus [5] = assay: In vivo antimicrobial activity against Staphylococcus aureus UAMS-1 infected in Caenorhabditis elegans AU37 nematodes assessed as viability of nematodes incubated for 5 days by susceptibility test; format: functional; conditions: UAMS-1, 120 h, time 5 day
Enterococcus faecalis [6] = assay: Antimicrobial activity against antibiotic-resistant Enterococcus faecalis ATCC 51299 assessed as inhibition of visible growth measured after 20 to 24 hrs incubation by CLSI method; format: functional; conditions: time 20-24 hrs
Enterococcus faecalis [7] = assay: Antimicrobial activity against antibiotic-susceptible Enterococcus faecalis ATCC 29212 assessed as inhibition of visible growth measured after 20 to 24 hrs incubation by CLSI method; format: functional; conditions: time 20-24 hrs
Enterococcus faecalis [8] = assay: Antimicrobial activity against antibiotic-susceptible Enterococcus faecalis ATCC 29212 assessed as eradication of biofilm measured after 24 hrs incubation by Calgary method; format: functional
Staphylococcus aureus [9] = assay: Antimicrobial activity against clinical isolate Staphylococcus aureus Smu9 assessed as inhibition of growth measured after 20 to 24 hrs incubation by CLSI method; format: functional; conditions: time 20-24 hrs
Staphylococcus aureus [10] = assay: Antimicrobial activity against clinical isolate Staphylococcus aureus Smu57 assessed as inhibition of growth measured after 20 to 24 hrs incubation by CLSI method; format: functional; conditions: time 20-24 hrs
Staphylococcus aureus [11] = assay: Antimicrobial activity against clinical isolate Staphylococcus aureus Smu109 assessed as inhibition of growth measured after 20 to 24 hrs incubation by CLSI method; format: functional; conditions: time 20-24 hrs
Staphylococcus aureus [12] = assay: Antimicrobial activity against Staphylococcus aureus UAB159 assessed as inhibition of growth measured after 20 to 24 hrs incubation by CLSI method; format: functional; conditions: time 20-24 hrs
Staphylococcus aureus [13] = assay: Antimicrobial activity against clinical isolate Staphylococcus aureus Smu21 assessed as inhibition of growth measured after 20 to 24 hrs incubation by CLSI method; format: functional; conditions: time 20-24 hrs
Staphylococcus aureus [14] = assay: Antimicrobial activity against clinical isolate Staphylococcus aureus Smu81 assessed as inhibition of growth measured after 20 to 24 hrs incubation by CLSI method; format: functional; conditions: time 20-24 hrs
Staphylococcus aureus [15] = assay: Antimicrobial activity against antibiotic-resistant Staphylococcus aureus ATCC 33591 assessed as inhibition of visible growth measured after 20 to 24 hrs incubation by CLSI method; format: functional; conditions: time 20-24 hrs
Staphylococcus aureus [16] = assay: Antimicrobial activity against antibiotic-resistant Staphylococcus aureus ATCC BAA-2312 assessed as inhibition of visible growth measured after 20 to 24 hrs incubation by CLSI method; format: functional; conditions: time 20-24 hrs
Staphylococcus aureus [17] = assay: Antimicrobial activity against antibiotic-resistant Staphylococcus aureus ATCC 33592 assessed as inhibition of visible growth measured after 20 to 24 hrs incubation by CLSI method; format: functional; conditions: time 20-24 hrs
Staphylococcus aureus [18] = assay: Antimicrobial activity against Staphylococcus aureus ATCC 25923 assessed as inhibition of visible growth measured after 20 to 24 hrs incubation by CLSI method; format: functional; conditions: time 20-24 hrs
Staphylococcus aureus [19] = assay: Antimicrobial activity against methicilline-resistant Staphylococcus aureus ATCC 700699 persisters assessed as bacterial killing at 32 time of MIC concentration measured for every 2 hrs upto 8 hrs by Persisters time course assay; format: functional, organism-based
Bacillus subtilis = assay: Antimicrobial activity against antibiotic-resistant Bacillus subtilis ATCC 6623 assessed as inhibition of visible growth measured after 20 to 24 hrs incubation by CLSI method; format: functional; conditions: time 20-24 hrs
Staphylococcus aureus [20] = assay: Bactericidal activity in antibiotic-resistant Staphylococcus aureus ATCC 700699 assessed as reduction in viable cell count at 4 times of MIC measured upto 24 hrs by time kill assay; format: functional, organism-based
[21] = test system: Staphylococcus epidermidis; assay: Antimicrobial activity against antibiotic-resistant Staphylococcus epidermidis ATCC 700296 assessed as inhibition of visible growth measured after 20 to 24 hrs incubation by CLSI method; format: functional; conditions: time 20-24 hrs
[22] = test system: Panel NCI-60 (60 carcinoma cell lines); assay: Cytotoxicity against human panel NCI-60 (60 carcinoma cell lines)cells assessed as cell viability at 10 uM measured after 24 hrs by resazurin assay; format: functional, cell-based
HEK293 = assay: Cytotoxicity against human HEK293 cells assessed as cell viability measured after 24 hrs by resazurin assay; format: toxicity, cell-based

CCCCCCCCCC(=O)N[C@@H](Cc1c[nH]c2ccccc12)C(=O)N[C@H](CC(N)=O)C(=O)N[C@@H](CC(=O)O)C(=O)N[C@@H]1C(=O)NCC(=O)N[C@@H](CCCN)C(=O)N[C@@H](CC(=O)O)C(=O)N[C@H](C)C(=O)N[C@@H](CC(=O)O)C(=O)NCC(=O)N[C@H](CO)C(=O)N[C@@H]([C@H](C)CC(=O)O)C(=O)N[C@@H](CC(=O)c2ccccc2N)C(=O)O[C@@H]1C was tested, and the MIC (Staphylococcus aureus [1]) was 4 µg/mL (≈ 2.47 µM), the MIC (Enterococcus faecium) was 16 µg/mL (≈ 9.87 µM) and the MIC (Staphylococcus aureus [2]) was 8 µg/mL (≈ 4.94 µM). For the same compound, the Activity (Cell membrane) was 7.02%, the MBEC (Staphylococcus aureus [3]) was >32 µg/mL and the MIC (Staphylococcus aureus [4]) was 4 µg/mL (≈ 2.47 µM). The MIC (Staphylococcus aureus [5]) was 4 µg/mL (≈ 2.47 µM), the MIC (Enterococcus faecalis [6]) was 16 µg/mL (≈ 9.87 µM) and the MIC (Enterococcus faecalis [7]) was 16 µg/mL (≈ 9.87 µM). It also gave an MBEC (Enterococcus faecalis [8]) of 16 µg/mL.

Work on O=C(O)c1ccc(-n2cc(CNc3cc(Cl)cc(Cl)c3)c(-c3ccc(C(F)(F)F)cc3)n2)cc1 yielded an MIC (Staphylococcus aureus [9]) of 1 µg/mL (≈ 1.98 µM), an MIC (Staphylococcus aureus [10]) of 2 µg/mL (≈ 3.95 µM) and an MIC (Staphylococcus aureus [11]) of 2 µg/mL (≈ 3.95 µM). For the same compound, the MIC (Staphylococcus aureus [12]) was 2 µg/mL (≈ 3.95 µM), the MIC (Staphylococcus aureus [13]) was 2 µg/mL (≈ 3.95 µM) and the MIC (Staphylococcus aureus [14]) was 2 µg/mL (≈ 3.95 µM).

For O=C(O)c1ccc(-n2cc(CNc3cc(Br)cc(C(F)(F)F)c3)c(-c3cccc(F)c3)n2)cc1, the MIC (Staphylococcus aureus [1]) was 1 µg/mL (≈ 1.87 µM), the MIC (Staphylococcus aureus [15]) was 1 µg/mL (≈ 1.87 µM) and the MIC (Staphylococcus aureus [16]) was 1 µg/mL (≈ 1.87 µM). For the same compound, the MIC (Staphylococcus aureus [17]) was 2 µg/mL (≈ 3.74 µM), the MIC (Staphylococcus aureus [18]) was 2 µg/mL (≈ 3.74 µM) and the MIC (Enterococcus faecium) was 2 µg/mL (≈ 3.74 µM). For the same compound, the Activity (Staphylococcus aureus [19]) was “Active”, the MIC (Bacillus subtilis) was 1 µg/mL (≈ 1.87 µM) and the MIC (Staphylococcus aureus [2]) was 2 µg/mL (≈ 3.74 µM). For the same compound, the Activity (Staphylococcus aureus [20]) was “Active”, the MBEC (Staphylococcus aureus [3]) was 4 µg/mL and the MIC (Staphylococcus aureus [4]) was 1 µg/mL (≈ 1.87 µM). It also gave an MIC (Staphylococcus aureus [5]) of 1 µg/mL (≈ 1.87 µM), an MIC [21] of 4 µg/mL (≈ 7.49 µM) and an MIC (Enterococcus faecalis [6]) of 4 µg/mL (≈ 7.49 µM). The MIC (Enterococcus faecalis [7]) was 4 µg/mL (≈ 7.49 µM), the Activity [22] was “inactive” and the MBEC (Enterococcus faecalis [8]) was 4 µg/mL.

For O=C(O)c1ccc(-n2cc(CNc3ccc(Br)c(Cl)c3)c(-c3ccc(F)cc3)n2)cc1, the IC50 (HEK293) was 20 µg/mL (≈ 39.9 µM), the MIC (Staphylococcus aureus [1]) was 2 µg/mL (≈ 3.99 µM) and the MIC (Staphylococcus aureus [15]) was 1 µg/mL (≈ 2 µM). For the same compound, the MIC (Staphylococcus aureus [16]) was 1 µg/mL (≈ 2 µM), the MIC (Staphylococcus aureus [17]) was 1 µg/mL (≈ 2 µM) and the MIC (Staphylococcus aureus [18]) was 1 µg/mL (≈ 2 µM). For the same compound, the MIC (Enterococcus faecium) was 4 µg/mL (≈ 7.99 µM), the MIC (Bacillus subtilis) was 0.5 µg/mL (≈ 0.998 µM) and the MIC (Staphylococcus aureus [2]) was 2 µg/mL (≈ 3.99 µM). It also gave an MIC (Staphylococcus aureus [4]) of 1 µg/mL (≈ 2 µM), an MIC (Staphylococcus aureus [5]) of 2 µg/mL (≈ 3.99 µM) and an MIC [21] of 4 µg/mL (≈ 7.99 µM). The MIC (Enterococcus faecalis [6]) was 8 µg/mL (≈ 16 µM) and the MIC (Enterococcus faecalis [7]) was 8 µg/mL (≈ 16 µM).

In the case of O=C(O)c1ccc(-n2cc(CNc3cc(Cl)c(F)c(Cl)c3)c(-c3ccc(C(F)(F)F)cc3)n2)cc1, the MIC (Staphylococcus aureus [9]) is reported as 2 µg/mL (≈ 3.81 µM), the MIC (Staphylococcus aureus [10]) is reported as 2 µg/mL (≈ 3.81 µM) and the MIC (Staphylococcus aureus [11]) is reported as 2 µg/mL (≈ 3.81 µM). The MIC (Staphylococcus aureus [12]) was 2 µg/mL (≈ 3.81 µM), the MIC (Staphylococcus aureus [13]) was 2 µg/mL (≈ 3.81 µM) and the MIC (Staphylococcus aureus [14]) was 2 µg/mL (≈ 3.81 µM).

O=C(O)c1ccc(-n2cc(CNc3cc(Cl)c(F)c(Cl)c3)c(-c3cccc(F)c3)n2)cc1 was tested, and the IC50 (HEK293) was 20 µg/mL (≈ 42.2 µM), the MIC (Staphylococcus aureus [1]) was 1 µg/mL (≈ 2.11 µM) and the MIC (Staphylococcus aureus [15]) was 0.5 µg/mL (≈ 1.05 µM). For the same compound, the MIC (Staphylococcus aureus [16]) was 0.5 µg/mL (≈ 1.05 µM), the MIC (Staphylococcus aureus [17]) was 1 µg/mL (≈ 2.11 µM) and the MIC (Staphylococcus aureus [18]) was 1 µg/mL (≈ 2.11 µM). It also gave an MIC (Enterococcus faecium) of 4 µg/mL (≈ 8.43 µM), an MIC (Bacillus subtilis) of 1 µg/mL (≈ 2.11 µM) and an MIC (Staphylococcus aureus [2]) of 2 µg/mL (≈ 4.22 µM). The MIC (Staphylococcus aureus [4]) was 1 µg/mL (≈ 2.11 µM), the MIC (Staphylococcus aureus [5]) was 1 µg/mL (≈ 2.11 µM) and the MIC [21] was 2 µg/mL (≈ 4.22 µM). It also gave an MIC (Enterococcus faecalis [6]) of 4 µg/mL (≈ 8.43 µM) and an MIC (Enterococcus faecalis [7]) of 8 µg/mL (≈ 16.9 µM).

For O=C(O)c1ccc(-n2cc(CNc3cc(C(F)(F)F)cc(C(F)(F)F)c3)c(-c3cccc(F)c3)n2)cc1, the MIC (Staphylococcus aureus [15]) was 1 µg/mL (≈ 1.91 µM), the MIC (Staphylococcus aureus [16]) was 1 µg/mL (≈ 1.91 µM) and the MIC (Staphylococcus aureus [17]) was 1 µg/mL (≈ 1.91 µM). For the same compound, the MIC (Staphylococcus aureus [18]) was 2 µg/mL (≈ 3.82 µM), the MIC (Enterococcus faecium) was 2 µg/mL (≈ 3.82 µM) and the Activity (Staphylococcus aureus [19]) was “Active”. For the same compound, the MIC (Bacillus subtilis) was 1 µg/mL (≈ 1.91 µM), the MIC (Staphylococcus aureus [2]) was 2 µg/mL (≈ 3.82 µM) and the MIC [21] was 4 µg/mL (≈ 7.64 µM). For the same compound, the MIC (Enterococcus faecalis [6]) was 2 µg/mL (≈ 3.82 µM) and the MIC (Enterococcus faecalis [7]) was 4 µg/mL (≈ 7.64 µM).
